Measured values reported in patent US20070128217A1 (priority 2003, published 2007).

Columns and labels:
[1] = test system: antibodies in sera from SARS patients (sera 1a, 1b, 2, 6, 37, 62, London, SARS-yellow, SARS-green); assay type: binding, human; design: Binding of serum 6 to linear peptides of protein X1 of SARS-CoV Urbani / Binding of serum 37 to linear peptides of protein X1 of SARS-CoV Urbani / Binding of serum 6 to looped/cyclic peptide (PEPSCAN-ELISA) / Binding of serum 37 to looped/cyclic peptide (PEPSCAN-ELISA) / Binding of serum 37 to looped/cyclic peptides of protein X1 of SARS-CoV Urbani / Binding of serum 6 to linear peptides of protein X2 / Binding of serum 37 to linear peptides of protein X2 / Binding of serum 37 to looped/cyclic peptides of protein X2 of SARS-CoV Urbani / Binding of serum 6 to linear peptides of protein M of SARS-CoV Urbani / Binding of serum 37 to linear peptides of protein M of SARS-CoV Urbani / Binding of serum 6 to looped/cyclic peptides of protein M of SARS-CoV Urbani / Binding of serum 37 to looped/cyclic peptides of protein M of SARS-CoV Urbani / Binding of serum 6 to linear peptides of protein X3 of SARS-CoV Urbani / Binding of serum 37 to linear peptides of protein X3 of SARS-CoV Urbani / Binding of serum 37 to looped/cyclic peptides of protein X3 of SARS-CoV Urbani / Binding of serum 6 to linear peptides of protein X4 of SARS-CoV Urbani / Binding of serum 37 to linear peptides of protein X4 of SARS-CoV Urbani / Binding of serum 37 to looped/cyclic peptides of protein X4 of SARS-CoV Urbani / Binding of serum 6 to linear peptides of protein X5 of SARS-CoV Urbani / Binding of serum 37 to linear peptides of protein X5 of SARS-CoV Urbani / Binding of serum 37 to looped/cyclic peptides of protein X5 of SARS-CoV Urbani / Binding of serum 6 to linear peptides of protein N of SARS-CoV Urbani / Binding of serum 37 to linear peptides of protein N of SARS-CoV Urbani / Binding of serum 6 to linear peptide (PEPSCAN-ELISA) / Binding of serum 1a to looped/cyclic peptides of protein N of SARS-CoV Urbani / Binding of serum 1b to looped/cyclic peptides of protein N of SARS-CoV Urbani / Binding of serum 2 to looped/cyclic peptides of protein N of SARS-CoV Urbani / Binding of serum 6 to looped/cyclic peptides of protein N of SARS-CoV Urbani / Binding of serum 37 to looped/cyclic peptides of protein N of SARS-CoV Urbani / Binding of serum 62 to looped/cyclic peptides of protein N of SARS-CoV Urbani / Binding of serum London to looped/cyclic peptides of protein N of SARS-CoV Urbani / Binding of serum SARS-green to looped/cyclic peptides of protein N of SARS-CoV Urbani: unit not given here
[2] = test system: control sera (pooled serum of ten healthy LUMC hospital workers; commercial negative donor pooled serum from the Dutch bloodbank); assay type: binding, human; design: Binding of Control serum LUMC to linear peptides / Binding of Control serum Blood-bank to linear peptides / Binding of Control serum LUMC to looped peptides / Binding of Control Serum Blood-Bank to Looped peptides / Binding of Control serum LUMC to linear peptides of the protein M of SARS-CoV Urbani / Binding of Control serum Blood-bank to linear peptides of the protein M of SARS-CoV Urbani / Binding of Control serum LUMC to looped peptides of the protein M of SARS-CoV Urbani / Binding of Control Serum Blood-Bank to Looped peptides of the protein M of SARS-CoV Urbani: unit not given here
[3] = test system: rabbit serum obtained by immunizing a rabbit with the SARS-CoV strain Frankfurt 1; assay type: binding; design: Binding of a rabbit serum to linear peptides / Binding of a rabbit serum to looped peptides / Rabbit serum linear peptides / Rabbit serum looped peptides / Binding of a rabbit serum to linear peptides of protein N of SARS-CoV Urbani (Rabbit serum linear peptides) / Binding of a rabbit serum to looped/cyclic peptides of protein N of SARS-CoV Urbani (Rabbit serum looped peptides): unit not given here
[4] = test system: recombinant human anti-SARS-CoV antibody 03-018; assay type: binding; design: Binding of antibody 03-018 to linear peptides of the N protein of SARS-CoV Urbani / Binding of antibody 03-018 to looped/cyclic peptides of the N protein of SARS-CoV Urbani: unit not given here

| Sequence | Binding of serum 1a to linear peptides of protein N of SARS-CoV Urbani [1] | Binding of serum 1a to looped/cyclic peptides of protein N of SARS-CoV Urbani [1] | Binding of serum 1b to linear peptides of protein N of SARS-CoV Urbani [1] | Binding of serum 1b to looped/cyclic peptides of protein N of SARS-CoV Urbani [1] | Binding of serum 2 to linear peptides of protein N of SARS-CoV Urbani [1] | Binding of serum 2 to looped/cyclic peptides of protein N of SARS-CoV Urbani [1] | Binding of serum 6 to linear peptides of protein N of SARS-CoV Urbani [1] | Binding of serum 6 to looped/cyclic peptides of protein N of SARS-CoV Urbani [1] | Binding of serum 37 to linear peptides of protein N of SARS-CoV Urbani [1] | Binding of serum 37 to looped/cyclic peptides of protein N of SARS-CoV Urbani [1] | Binding of serum 62 to linear peptides of protein N of SARS-CoV Urbani [1] | Binding of serum 62 to looped/cyclic peptides of protein N of SARS-CoV Urbani [1] | Binding of serum London to linear peptides of protein N of SARS-CoV Urbani [1] | Binding of serum London to looped/cyclic peptides of protein N of SARS-CoV Urbani [1] | Binding of serum SARS-green to looped/cyclic peptides of protein N of SARS-CoV Urbani [1] | Binding of serum SARS-yellow to looped/cyclic peptides of protein N of SARS-CoV Urbani [1] | Binding of a rabbit serum to linear peptides of protein N of SARS-CoV Urbani (Rabbit serum linear peptides) [3] | Binding of a rabbit serum to looped/cyclic peptides of protein N of SARS-CoV Urbani (Rabbit serum looped peptides) [3] | Binding of antibody 03-018 to linear peptides of the N protein of SARS-CoV Urbani [4] | Binding of antibody 03-018 to looped/cyclic peptides of the N protein of SARS-CoV Urbani [4] | also measured |
| --- | --- | --- | --- | --- | --- | --- | --- | --- | --- | --- | --- | --- | --- | --- | --- | --- | --- | --- | --- | --- | --- |
| NKHIDAYKTFPPTEP | 0.2 | 0.3 | 0.1 | 0.1 | 0.1 | 0.2 | 0.2 | 0.1 | 0.6 | 0.4 | 0.5 | 0.3 | 0.5 | 0.3 | 0.3 | 0.2 | 0.0 | 0.3 | 0.1 | 0.2 | Binding of serum SARS-green to linear peptides of protein N of SARS-CoV Urbani [1]: 0.3; Binding of serum SARS-yellow to linear peptides of protein N of SARS-CoV Urbani [1]: 0.6; Control Serum Blood-Bank Looped peptides [2]: 0.5; Control serum Blood-bank linear peptides [2]: 0.6; Control serum LUMC linear peptides [2]: 0.5; Control serum LUMC looped peptides [2]: 0.4 |
| ARPKQRRPQGLPNNT | 0.2 | 0.2 | 0.1 | 0.1 | 0.3 | 0.4 | 0.2 | 0.2 | 0.7 | 0.5 | 0.6 | 0.5 | 0.5 | 0.3 | 0.2 | 0.2 | 0.2 | 0.4 | 0.1 | 0.2 | Binding of serum SARS-green to linear peptides of protein N of SARS-CoV Urbani [1]: 0.5; Binding of serum SARS-yellow to linear peptides of protein N of SARS-CoV Urbani [1]: 0.5; Binding of Control Serum Blood-Bank to Looped peptides [2]: 0.6; Binding of Control serum Blood-bank to linear peptides [2]: 0.6; Binding of Control serum LUMC to linear peptides [2]: 0.6; Binding of Control serum LUMC to looped peptides [2]: 0.5 |
| GETALALLLLDRLNQ | – | 0.4 | – | 0.2 | – | 0.4 | – | 0.2 | – | 0.7 | – | 0.7 | – | 0.5 | 0.3 | 0.6 | 0.2 | 0.6 | 0.1 | 0.3 | Binding of serum 1a to linear peptide (PEPSCAN-ELISA) [1]: 0.2; Binding of serum 1b to linear peptide (PEPSCAN-ELISA) [1]: 0.1; Binding of serum 2 to linear peptide (PEPSCAN-ELISA) [1]: 0.2; Binding of serum 6 to linear peptide (PEPSCAN-ELISA) [1]: 0.1; Binding of serum 37 to linear peptide (PEPSCAN-ELISA) [1]: 0.5; Binding of serum 62 to linear peptide (PEPSCAN-ELISA) [1]: 0.6; Binding of serum London to linear peptide (PEPSCAN-ELISA) [1]: 0.5; Binding of serum SARS-green to linear peptide (PEPSCAN-ELISA) [1]: 0.2; Binding of serum SARS-yellow to linear peptide (PEPSCAN-ELISA) [1]: 0.6; Binding of Control Serum Blood-Bank to Looped peptides [2]: 0.7; Binding of Control serum Blood-bank to linear peptides [2]: 0.6; Binding of Control serum LUMC to linear peptides [2]: 0.6; Binding of Control serum LUMC to looped peptides [2]: 0.7 |
| SAFFGMSRIGMEVTP | 0.3 | 0.4 | 0.2 | 0.3 | 0.2 | 0.4 | 0.2 | 0.2 | 0.7 | 0.5 | 0.8 | 0.4 | 0.6 | 0.4 | 0.4 | 0.5 | 0.2 | 0.5 | 0.1 | 0.2 | Binding of serum SARS-green to linear peptides of protein N of SARS-CoV Urbani [1]: 0.3; Binding of serum SARS-yellow to linear peptides of protein N of SARS-CoV Urbani [1]: 0.7; Control Serum Blood-Bank Looped peptides [2]: 0.6; Control serum Blood-bank linear peptides [2]: 0.8; Control serum LUMC linear peptides [2]: 0.7; Control serum LUMC looped peptides [2]: 0.5 |
